Measurements published in patent US20240083897A1, “GCN2 MODULATING COMPOUNDS AND USES THEREOF” (HiberCell, Inc., priority 2021, published 2024).
Where two headings read alike, the source gives them in different places.

Biological target: GCN2 (Homo sapiens (Human), UniProt Q9P2K8)
Assay: TR-FRET biochemical assay for inhibition of GCN2
[1] = GCN2 2 nM, 100 nM GFP-eIF2a, 150 μM ATP, TR-FRET

Sequence of GCN2 (Q9P2K8 whole entry): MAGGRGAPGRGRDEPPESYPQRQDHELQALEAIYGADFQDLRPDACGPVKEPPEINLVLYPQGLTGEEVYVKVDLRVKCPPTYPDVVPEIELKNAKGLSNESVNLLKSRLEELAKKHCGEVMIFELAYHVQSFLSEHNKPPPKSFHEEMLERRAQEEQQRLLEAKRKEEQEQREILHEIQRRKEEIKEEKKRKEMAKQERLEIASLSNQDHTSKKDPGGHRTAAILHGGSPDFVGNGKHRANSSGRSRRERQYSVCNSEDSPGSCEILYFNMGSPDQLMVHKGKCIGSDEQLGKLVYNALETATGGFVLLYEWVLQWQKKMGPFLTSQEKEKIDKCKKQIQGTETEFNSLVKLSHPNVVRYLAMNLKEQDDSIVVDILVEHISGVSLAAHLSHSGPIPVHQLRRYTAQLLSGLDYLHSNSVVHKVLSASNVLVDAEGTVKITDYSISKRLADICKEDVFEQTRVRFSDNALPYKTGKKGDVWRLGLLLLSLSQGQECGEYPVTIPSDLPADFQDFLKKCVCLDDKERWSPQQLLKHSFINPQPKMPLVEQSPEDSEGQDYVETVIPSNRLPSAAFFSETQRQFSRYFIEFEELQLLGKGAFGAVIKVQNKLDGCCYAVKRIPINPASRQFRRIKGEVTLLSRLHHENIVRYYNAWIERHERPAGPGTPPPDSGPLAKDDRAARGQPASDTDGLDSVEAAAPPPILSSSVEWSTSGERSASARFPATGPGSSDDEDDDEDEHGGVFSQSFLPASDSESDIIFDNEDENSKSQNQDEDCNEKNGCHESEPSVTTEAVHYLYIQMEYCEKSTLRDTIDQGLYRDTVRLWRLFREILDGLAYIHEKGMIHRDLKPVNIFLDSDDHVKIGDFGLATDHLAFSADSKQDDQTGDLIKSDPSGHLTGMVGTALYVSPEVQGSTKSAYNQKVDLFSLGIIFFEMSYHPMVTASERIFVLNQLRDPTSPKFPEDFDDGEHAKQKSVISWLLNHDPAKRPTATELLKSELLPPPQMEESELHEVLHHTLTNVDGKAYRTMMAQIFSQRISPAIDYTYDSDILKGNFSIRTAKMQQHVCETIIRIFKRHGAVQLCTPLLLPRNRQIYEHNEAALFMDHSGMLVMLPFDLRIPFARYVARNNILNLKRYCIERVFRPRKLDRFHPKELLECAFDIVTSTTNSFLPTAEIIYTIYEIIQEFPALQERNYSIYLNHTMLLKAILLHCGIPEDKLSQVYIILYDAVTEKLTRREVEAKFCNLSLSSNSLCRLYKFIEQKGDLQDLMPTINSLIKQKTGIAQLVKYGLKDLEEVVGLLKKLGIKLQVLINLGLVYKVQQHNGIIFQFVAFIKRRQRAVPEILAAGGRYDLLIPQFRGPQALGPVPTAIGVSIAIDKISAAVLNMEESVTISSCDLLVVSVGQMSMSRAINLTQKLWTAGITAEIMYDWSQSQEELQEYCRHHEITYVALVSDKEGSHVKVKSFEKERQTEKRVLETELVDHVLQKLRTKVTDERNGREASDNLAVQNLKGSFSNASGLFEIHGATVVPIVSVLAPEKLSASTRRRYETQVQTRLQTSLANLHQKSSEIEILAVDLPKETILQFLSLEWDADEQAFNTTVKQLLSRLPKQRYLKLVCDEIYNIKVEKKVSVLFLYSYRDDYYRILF

| SMILES | IC50 [1] | IC50 |
| --- | --- | --- |
| COc1ncc(Cl)cc1S(=O)(=O)Nc1ccc(F)c(-c2ccc3c(-c4ccno4)ncn3c2)c1F [Compound 99, 5-chloro-N-(2,4-difluoro-3-(1-(isoxazol-5-yl)imidazo[1,5-a]pyridin-6-yl)phenyl)-2-methoxypyridine-3-sulfonamide] | < 50 nM | – |
| Cc1ncc(Cl)cc1S(=O)(=O)Nc1ccc(F)c(-c2ccc3c(-c4nnc[nH]4)ncn3c2)c1F [Compound 65, 5-chloro-N-[2,4-difluoro-3-[1-(4H-1,2,4-triazol-3-yl)imidazo[1,5-a]pyridin-6-yl]phenyl]-2-methylpyridine-3-sulfonamide] | < 50 nM | – |
| Cc1ncc(Cl)cc1S(=O)(=O)Nc1ccc(F)c(-c2ccc3c(-c4nc5c([nH]4)CCCC5)ncn3c2)c1F [Compound 150, 5-chloro-N-(2,4-difluoro-3-(1-(4,5,6,7-tetrahydro-1H-benzo[d]imidazol-2-yl)imidazo[1,5-a]pyridin-6-yl)phenyl)-2-methylpyridine-3-sulfonamide] | < 50 nM | – |
| COc1ncc(Cl)cc1S(=O)(=O)Nc1ccc(F)c(-c2cn3cnc(-c4ncc[nH]4)c3cn2)c1F [Compound 31, 5-chloro-N-[2,4-difluoro-3-[1-(1H-imidazol-2-yl)imidazo[1,5-a]pyrazin-6-yl]phenyl]-2-methoxypyridine-3-sulfonamide] | < 50 nM | – |
| CNC(=O)c1ncn2c1CCC(c1c(Cl)ccc(NS(=O)(=O)c3cc(F)cnc3OC)c1F)C2 (stereo in doubt) [Compound 155-2, (6S)-6-[6-chloro-2-fluoro-3-(5-fluoro-2-methoxypyridine-3-sulfonamido)phenyl]-N-methyl-5H,6H,7H,8H-imidazo[1,5-a]pyridine-1-carboxamide] | – | 50 to 500 nM |
| Cc1ncc(Cl)cc1S(=O)(=O)Nc1ccc(F)c(-c2ccc3c(-c4ncc[nH]4)ncn3n2)c1F [Compound 95, 5-chloro-N-[2,4-difluoro-3-[5-(1H-imidazol-2-yl)imidazo[1,5-b]pyridazin-2-yl]phenyl]-2-methylpyridine-3-sulfonamide] | < 50 nM | – |
| COC(=O)c1ccc2nc(-c3ncn4cc(-c5c(F)ccc(NS(=O)(=O)c6cc(F)cnc6OC)c5F)ncc34)[nH]c2c1 [Compound 153, methyl 2-[6-[2,6-difluoro-3-(5-fluoro-2-methoxypyridine-3-sulfonamido)phenyl]imidazo[1,5-a]pyrazin-1-yl]-3H-1,3-benzodiazole-5-carboxylate] | < 50 nM | – |
| COc1ncc(C#N)cc1S(=O)(=O)Nc1ccc(F)c([C@H]2CCc3c(-c4nnc(C)[nH]4)ncn3C2)c1F [Compound 135-2, 5-cyano-N-[2,4-difluoro-3-[(6R)-1-(5-methyl-4H-1,2,4-triazol-3-yl)-5H,6H,7H,8H-imidazo[1,5-a]pyridin-6-yl]phenyl]-2-methoxypyridine-3-sulfonamide] | – | 50 to 500 nM |
| CNC(=O)c1ncn2c1CO[C@@H](c1c(F)ccc(NS(=O)(=O)c3cc(Cl)cnc3OC)c1F)C2 [Compound 154-1, (6S)-6-[3-(5-chloro-2-methoxypyridine-3-sulfonamido)-2,6-difluorophenyl]-N-methyl-5H,6H,8H-imidazo[4,3-c][1,4]oxazine-1-carboxamide] | – | 50 to 500 nM |
| CNC(=O)c1ncn2c(F)c(-c3c(F)ccc(NS(=O)(=O)c4cc(Cl)cnc4C)c3F)ncc12 [Compound 186, 6-[3-(5-chloro-2-methylpyridine-3-sulfonamido)-2,6-difluorophenyl]-5-fluoro-N-methylimidazo[1,5-a]pyrazine-1-carboxamide] | < 50 nM | – |
| COc1ncc(Cl)cc1S(=O)(=O)Nc1ccc(F)c(-c2ccc3c(-c4ccn(C)n4)ncn3c2)c1F [Compound 37, 5-chloro-N-[2,4-difluoro-3-[1-(1-methylpyrazol-3-yl)imidazo[1,5-a]pyridin-6-yl]phenyl]-2-methoxypyridine-3-sulfonamide] | < 50 nM | – |
| COc1ncc(F)cc1S(=O)(=O)Nc1ccc(F)c(-c2ccc3c(-c4nc5ccc(N6CCN(C)CC6)cc5[nH]4)ncn3c2)c1F [Compound 185, N-(2,4-difluoro-3-[1-[5-(4-methylpiperazin-1-yl)-3H-1,3-benzodiazol-2-yl]imidazo[1,5-a]pyridin-6-yl]phenyl)-5-fluoro-2-methoxypyridine-3-sulfonamide] | < 50 nM | – |
| Cc1nnc(-c2ncn3c2CC[C@H](c2c(F)ccc(NS(=O)(=O)c4cc(Cl)cnc4C)c2F)C3)[nH]1 [Compound 136-2, 5-chloro-N-[2,4-difluoro-3-[(6R)-1-(5-methyl-4H-1,2,4-triazol-3-yl)-5H,6H,7H,8H-imidazo[1,5-a]pyridin-6-yl]phenyl]-2-methylpyridine-3-sulfonamide] | < 50 nM | – |
| Cc1ncc(F)cc1S(=O)(=O)Nc1ccc(F)c(-c2ccc3c(-c4ccn(C)n4)ncn3c2)c1F [Compound 54, N-[2,4-difluoro-3-[1-(1-methylpyrazol-3-yl)imidazo[1,5-a]pyridin-6-yl]phenyl]-5-fluoro-2-methylpyridine-3-sulfonamide] | – | 50 to 500 nM |
| COc1ncc(F)cc1S(=O)(=O)Nc1ccc(F)c(-c2ccc3c(-c4nnc(C)[nH]4)ncn3c2)c1F [Compound 58, N-[2,4-difluoro-3-[1-(5-methyl-4H-1,2,4-triazol-3-yl)imidazo[1,5-a]pyridin-6-yl]phenyl]-5-fluoro-2-methoxypyridine-3-sulfonamide] | < 50 nM | – |
| CCNC(=O)c1ncn2cc(-c3c(F)ccc(NS(=O)(=O)c4cc(Cl)cnc4OC)c3F)ncc12 [Compound 165, 6-[3-(5-chloro-2-methoxypyridine-3-sulfonamido)-2,6-difluorophenyl]-N-ethylimidazo[1,5-a]pyrazine-1-carboxamide] | < 50 nM | – |
| Cc1ncc(Cl)cc1S(=O)(=O)Nc1ccc(F)c(-c2ccc3c(-n4cnnn4)ncn3c2)c1F [Compound 77, 5-chloro-N-[2,4-difluoro-3-[1-(1,2,3,4-tetrazol-1-yl)imidazo[1,5-a]pyridin-6-yl]phenyl]-2-methylpyridine-3-sulfonamide] | < 50 nM | – |
| CNC(=O)c1ncn2cc(-c3c(F)ccc(NS(=O)(=O)c4cc(F)cnc4C)c3F)ncc12 [Compound 91, 6-[2,6-difluoro-3-(5-fluoro-2-methylpyridine-3-sulfonamido)phenyl]-N-methylimidazo[1,5-a]pyrazine-1-carboxamide] | – | 50 to 500 nM |
| COc1ncc(C#N)cc1S(=O)(=O)Nc1ccc(F)c(-c2ccn3c(-c4ncc[nH]4)ncc3c2)c1F [Compound 40, 5-cyano-N-[2,4-difluoro-3-[3-(1H-imidazol-2-yl)imidazo[1,5-a]pyridin-7-yl]phenyl]-2-methoxypyridine-3-sulfonamide] | < 50 nM | – |
| Cc1ncc(F)cc1S(=O)(=O)Nc1ccc(F)c(-c2ccc3c(-c4ncc[nH]4)ncn3c2)c1F [Compound 19, N-[2,4-difluoro-3-[1-(1H-imidazol-2-yl)imidazo[1,5-a]pyridin-6-yl]phenyl]-5-fluoro-2-methylpyridine-3-sulfonamide] | < 50 nM | – |
| COc1ncc(Cl)cc1S(=O)(=O)Nc1ncc(F)c(-c2ccc3c(-c4ncc[nH]4)ncn3c2)c1F [Compound 26, 5-chloro-N-[3,5-difluoro-4-[1-(1H-imidazol-2-yl)imidazo[1,5-a]pyridin-6-yl]pyridin-2-yl]-2-methoxypyridine-3-sulfonamide] | < 50 nM | – |
| COc1ncc(C#N)cc1S(=O)(=O)Nc1ccc(F)c(-c2ccc3c(-n4cnnn4)ncn3c2)c1F [Compound 75, 5-cyano-N-[2,4-difluoro-3-[1-(1,2,3,4-tetrazol-1-yl)imidazo[1,5-a]pyridin-6-yl]phenyl]-2-methoxypyridine-3-sulfonamide] | < 50 nM | – |
| COc1ncc(Cl)cc1S(=O)(=O)Nc1ccc(F)c(-c2ccn3c(-c4ncc[nH]4)ncc3c2)c1F [Compound 35, 5-chloro-N-[2,4-difluoro-3-[3-(1H-imidazol-2-yl)imidazo[1,5-a]pyridin-7-yl]phenyl]-2-methoxypyridine-3-sulfonamide] | < 50 nM | – |
| CNC(=O)c1ncn2cc(-c3c(F)ccc(NS(=O)(=O)c4cc(Cl)c[nH]c4=O)c3F)ncc12 [Compound 132, 6-(3-((5-chloro-2-oxo-1,2-dihydropyridine)-3-sulfonamido)-2,6-difluorophenyl)-N-methylimidazo[1,5-a]pyrazine-1-carboxamide] | > 1000 nM | – |
| COc1ncc(F)cc1S(=O)(=O)Nc1ccc(F)c(-c2cn3cnc(-c4ncc[nH]4)c3cn2)c1F [Compound 78, N-[2,4-difluoro-3-[1-(1H-imidazol-2-yl)imidazo[1,5-a]pyrazin-6-yl]phenyl]-5-fluoro-2-methoxypyridine-3-sulfonamide] | < 50 nM | – |
| CNC(=O)c1ncn2cc(-c3c(F)ccc(NS(=O)(=O)c4cc(Cl)cnc4OC)c3Cl)ncc12 [Compound 106, 6-[2-chloro-3-(5-chloro-2-methoxypyridine-3-sulfonamido)-6-fluorophenyl]-N-methylimidazo[1,5-a]pyrazine-1-carboxamide] | < 50 nM | – |
| Cc1nnc(-c2ncn3c2CC[C@@H](c2c(F)ccc(NS(=O)(=O)c4cc(F)cnc4C)c2F)C3)[nH]1 [Compound 134-1, N-[2,4-difluoro-3-[(6S)-1-(5-methyl-4H-1,2,4-triazol-3-yl)-5H,6H,7H,8H-imidazo[1,5-a]pyridin-6-yl]phenyl]-5-fluoro-2-methylpyridine-3-sulfonamide] | < 50 nM | – |
| COc1ncc(Cl)cc1S(=O)(=O)Nc1ccc(F)c(-c2ccc3c(-c4nc(C#N)c[nH]4)ncn3c2)c1F [Compound 43, N-[3-[1-(4-cyano-1H-imidazol-2-yl)imidazo[1,5-a]pyridin-6-yl]-2,4-difluorophenyl]-5-chloro-2-methoxypyridine-3-sulfonamide] | < 50 nM | – |
| COc1ncc(C#N)cc1S(=O)(=O)Nc1ccc(F)c([C@H]2CCc3c(-c4ncc[nH]4)ncn3C2)c1F [Compound 82-1, 5-cyano-N-[2,4-difluoro-3-[(6R)-1-(1H-imidazol-2-yl)-5H,6H,7H,8H-imidazo[1,5-a]pyridin-6-yl]phenyl]-2-methoxypyridine-3-sulfonamide] | – | 50 to 500 nM |
| COc1ncc(C#N)cc1S(=O)(=O)Nc1ccc(F)c([C@@H]2CCc3c(-c4nnc(C)[nH]4)ncn3C2)c1F [Compound 135-1, 5-cyano-N-[2,4-difluoro-3-[(6S)-1-(5-methyl-4H-1,2,4-triazol-3-yl)-5H,6H,7H,8H-imidazo[1,5-a]pyridin-6-yl]phenyl]-2-methoxypyridine-3-sulfonamide] | – | 50 to 500 nM |
